Target: T1, human mGluR2 receptor (Homo sapiens, UniProt Q14416)
T1 construct: expressed in transfected cells; host or cells: CHO cells
Assay: [35S]GTPγS binding assay, positive allosteric modulation (GTPγS-PAM) in presence of EC20 glutamate
Format: biochemical
Details: in presence of glutamate at EC20; average pEC50 if more experiments; ‡ means tested once
Description: [^35S]GTPγS Binding Assay
The [^35S]GTPγS binding assay is a functional membrane-based assay used to study G-protein coupled receptor (GPCR) function whereby incorporation of a non-hydrolysable form of GTP, [^35S]GTPγS (guanosine 5′-triphosphate, labelled with […] ^35S), is measured. The G-protein α subunit catalyzes the exchange of guanosine 5′-diphosphate (GDP) by guanosine triphosphate (GTP) and on activation of the GPCR by an agonist, [^35S]GTPγS, becomes incorporated and cannot be cleaved to continue the exchange cycle (Harper (1998) Current Protocols in Pharmacology 2.6.1-10, John Wiley & Sons, Inc.). […] Here we describe the use of the [^35S]GTPγS binding assay using membranes from cells transfected with the human mGluR2 receptor and adapted from Schaffhauser et al. ((2003) Molecular Pharmacology 4:798-810) for the detection of the positive allosteric modulation (PAM) properties of the compounds of this invention.
CHO-cells were cultured to pre-confluence and stimulated with 5 mM butyrate for 24 h, prior to washing in PBS, and then collected by scraping in homogenisation buffer (50 mM Tris-HCl buffer, pH 7.4, 4° C.). Cell lysates were homogenized briefly using an ultra-turrax homogenizer. The homogenate was centrifuged at 16,000 RPM (Sorvall RC-5C plus rotor SS-34) for 10 minutes and the supernatant discarded. The pellet was resuspended in 5 mM Tris-HCl, pH 7.4 and centrifuged again (18,000 RPM, 20 min, 4° C.). The final pellet was resuspended in 50 mM Tris-HCl, pH 7.4 and stored at −80° C. in appropriate aliquots before use. Protein concentration was determined by the Bradford method (Bio-Rad, USA) with bovine serum albumin as standard.
Measurement of mGluR2 positive allosteric modulatory activity of test compounds was performed as follows. Test compounds and glutamate were diluted in assay buffer containing 10 mM HEPES acid, 10 mM HEPES salt, pH 7.4, 100 mM NaCl, 3 mM MgCl2 and 10 μM GDP. Human mGlu2 receptor-containing membranes were thawed on ice and diluted in assay buffer supplemented with 14 μg/ml saponin. Membranes were pre-incubated with compound alone or together with a predefined (˜EC20) concentration of glutamate (PAM assay) for 30 min at 30° C. After addition of [^35S]GTPγS (f.c. 0.1 nM) microplates were shaken briefly and further incubated to allow [^35S]GTPγS incorporation on activation (30 minutes, 30° C.). Final assay mixtures contained 7 μg of membrane protein in 10 mM HEPES acid, 10 mM HEPES salt, pH 7.4, 100 mM NaCl, 3 mM MgCl2, 10 µM GDP and 10 μg/ml saponin. Total reaction volume was 200 μl. Reactions were terminated by rapid filtration through Unifilter-96 GF/B filter plates (Packard, Meriden, Conn.) using a 96-well Packard filtermate harvester. Filters were washed 6 times with ice-cold 10 mM NaH2PO4/10 mM Na2HPO4, pH 7.4. Filters were then air-dried, and 40 μl of liquid scintillation cocktail (Microscint-O) was added to each well. Membrane-bound radioactivity was counted in a Microplate Scintillation and Luminescence Counter from Packard.
The concentration-response curves of representative compounds of the present invention-obtained in the presence of EC20 of mGluR2 agonist glutamate to determine positive allosteric modulation (PAM)—were generated using the Lexis software interface (developed at J&J).

T1 sequence (Q14416 19-872): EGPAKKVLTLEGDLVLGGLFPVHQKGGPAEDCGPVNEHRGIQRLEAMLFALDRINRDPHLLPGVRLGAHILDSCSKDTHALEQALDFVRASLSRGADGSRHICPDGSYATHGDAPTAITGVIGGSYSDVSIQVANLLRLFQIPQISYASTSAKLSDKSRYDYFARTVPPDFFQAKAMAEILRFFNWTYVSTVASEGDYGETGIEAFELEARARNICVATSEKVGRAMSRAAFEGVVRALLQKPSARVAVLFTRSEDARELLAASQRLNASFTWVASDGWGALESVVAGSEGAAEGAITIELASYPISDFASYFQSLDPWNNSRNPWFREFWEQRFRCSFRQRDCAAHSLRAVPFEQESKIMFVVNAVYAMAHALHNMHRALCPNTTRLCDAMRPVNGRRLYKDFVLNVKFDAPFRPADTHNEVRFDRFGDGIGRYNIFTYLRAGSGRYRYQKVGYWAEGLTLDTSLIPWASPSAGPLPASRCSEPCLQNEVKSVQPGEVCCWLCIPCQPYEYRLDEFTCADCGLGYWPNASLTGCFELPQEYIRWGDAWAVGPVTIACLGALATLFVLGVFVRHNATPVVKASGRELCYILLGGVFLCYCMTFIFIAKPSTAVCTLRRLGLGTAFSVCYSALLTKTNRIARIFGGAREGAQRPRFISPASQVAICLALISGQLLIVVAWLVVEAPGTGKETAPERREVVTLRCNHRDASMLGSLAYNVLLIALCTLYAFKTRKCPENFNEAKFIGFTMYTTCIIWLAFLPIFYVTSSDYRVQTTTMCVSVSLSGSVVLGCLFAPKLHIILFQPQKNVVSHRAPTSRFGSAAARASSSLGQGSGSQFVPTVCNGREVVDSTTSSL

Compound | GTPγS - hR2 PAM pEC50
FC(F)(F)c1c(N2CCN(c3ncccn3)CC2)ccn2c(CC3CC3)nnc12 [compound 64] | 6.65
Cc1cccnc1OC1CCN(c2ccn3c(CC4CC4)nnc3c2C(F)(F)F)CC1 [compound 68] | 7.55
CC1(C)CN(c2ccn3c(CC4CC4)nnc3c2C(F)(F)F)CCN1c1ccccc1 [compound 72] | 7.06
N#Cc1c(N2CCN(C3CCC(C(F)(F)F)CC3)CC2)ccn2c(CC(F)(F)F)nnc12 (stereo not shown) [compound 73] | 6.13
FC(F)(F)c1c(N2CCC3(CC2)OCc2ccccc23)ccn2c(CC3CC3)nnc12 [compound 77] | 7.68‡
FC(F)(F)c1c(N2CCC3(CC2)COc2ccccc2O3)ccn2c(CC3CC3)nnc12 [compound 79] | 7.28
FC(F)(F)c1c(N2CCC(F)(c3ccccc3)CC2)ccn2c(COCC3CC3)nnc12 [compound 80] | 7.27
CCCc1nnc2c(C(F)(F)F)c(N3CCC4(CC3)COc3ccccc34)ccn12 [compound 87] | 6.94
CCCc1nnc2c(Cl)c(N3CCC4(CC3)COc3ccccc34)ccn12 [compound 88] | 6.18
CCc1nnc2c(C(F)(F)F)c(N3CCC4(CC3)COc3ccccc34)ccn12 [compound 89] | 6.46‡
COc1cnc(N2CCN(c3ccn4c(CC5CC5)nnc4c3C(F)(F)F)CC2)nc1 [compound 90] | 6.61
COc1cccnc1C1CCN(c2ccn3c(CC4CC4)nnc3c2C(F)(F)F)CC1 [compound 91] | 7.27
COc1cccnc1N1CCN(c2ccn3c(CC4CC4)nnc3c2C(F)(F)F)CC1 [compound 92] | 6.87
CCCc1nnc2c(Cl)c(N3CCC4(CC3)OCc3ccccc34)ccn12 [compound 93] | 6.53
CCCc1nnc2c(Cl)c(N3CCN(c4ccc(F)cc4F)CC3)ccn12 [compound 95] | 5.93‡
CCc1nnc2c(Cl)c(N3CCC4(CC3)OCc3ccccc34)ccn12 [compound 102] | 6.5

Compound | GTPγS - hR2 PAM pEC50
CCCc1nnc2c(Cl)c(N3CCC4(CC3)OCc3c(F)cccc34)ccn12 [compound 106] | 6.45
CCCc1nnc2c(Cl)c(N3CCC4(CC3)OC(C)(C)c3ccccc34)ccn12 [compound 107] | 7.22
Cl.Fc1cccc2c1COC21CCN(c2ccn3c(CC4CC4)nnc3c2Cl)CC1 [compound 108] | 6.91‡
Fc1cccc2c1COC21CCN(c2ccn3c(CC4CC4)nnc3c2C(F)(F)F)CC1 [compound 109] | 7.29
CCCc1nnc2c(C(F)(F)F)c(N3CCC4(CC3)OCc3c(F)cccc34)ccn12 [compound 110] | 6.86
COc1cnc(C2CCN(c3ccn4c(CC5CC5)nnc4c3C(F)(F)F)CC2)nc1 [compound 111] | 6.26
CCCc1nnc2c(C(F)(F)F)c(N3CCC4(CC3)OC(C)(C)c3ccccc34)ccn12 [compound 113] | 7.59
Fc1cccc(C2(C(F)(F)F)CCN(c3ccn4c(CC5CC5)nnc4c3Cl)CC2)c1 [compound 117] | 6.68
FC(F)(F)c1c(N2CCc3ccccc3C2)ccn2c(CC3CC3)nnc12 [compound 118] | 6.83
N#Cc1c(N2CCC(c3ccccc3)(C(F)(F)F)CC2)ccn2c(CC3CC3)nnc12 [compound 120] | 6.31
FC(F)(F)c1c(N2CCC(Oc3ccccn3)CC2)ccn2c(CC3CC3)nnc12 [compound 124] | 6.98
FC(F)(F)c1c(N2CCC(Oc3ccccn3)CC2)ccn2c(CCC3CC3)nnc12 [compound 129] | 6.92
FC(F)(F)c1c(N2Cc3ccccc3C2)ccn2c(CC3CC3)nnc12 [compound 130] | 6.4
CCOCc1nnc2c(C(F)(F)F)c(N3CCC(Oc4ccccn4)CC3)ccn12 [compound 132] | 6.68
CCOCc1nnc2c(C(F)(F)F)c(N3CCC(Oc4ncccc4C)CC3)ccn12 [compound 134] | 7.17

Continued, values first:

GTPγS - hR2 PAM pEC50 | Compound
8.41 | COc1cccc(F)c1C1CCN(c2ccn3c(CC(F)(F)F)nnc3c2Cl)CC1 [compound 65]
7.36 | CCCc1nnc2c(C(F)(F)F)c(N3CCC(c4ccccc4)CC3)ccn12 [compound 67]
6.65‡ | FC(F)(F)CCc1nnc2c(Cl)c(N3CCC(c4ccccc4)CC3)ccn12 [compound 71]
6.85 | CC(C)Cc1nnc2c(C#N)c(N3CCC(c4ccccc4)CC3)ccn12 [compound 74]
7.51 | CCOCc1nnc2c(Cl)c(N3CCC(c4ccccc4OC)CC3)ccn12 [compound 82]
7.64 | CCOCc1nnc2c(Cl)c(N3CCC(c4cc(F)ccc4OC)CC3)ccn12 [compound 83]
7.86 | CCOCc1nnc2c(Cl)c(N3CCC(c4c(OC)ccc(F)c4F)CC3)ccn12 [compound 84]
8.06 | CCOCc1nnc2c(Cl)c(N3CCC(c4c(F)cc(F)cc4OC)CC3)ccn12 [compound 85]
7.95 | CCOCc1nnc2c(Cl)c(N3CCC(c4c(F)ccc(F)c4OC)CC3)ccn12 [compound 86]
6.03 | Clc1c(N2CCN(c3ccccc3)CC2)ccn2c(CC3CC3)nnc12 [compound 99]
6.24 | FC(F)(F)Cc1nnc2c(Cl)c(N3CCN(c4ccccc4)CC3)ccn12 [compound 101]
5.63‡ | CCOCc1nnc2c(Cl)c(N3CCN(c4ccccc4)C(C)(C)C3)ccn12 [compound 103]
7.7 | CC1(C)OC2(CCN(c3ccn4c(CC5CC5)nnc4c3Cl)CC2)c2ccccc21 [compound 104]
6.17‡ | CC1(C)CN(c2ccn3c(CC4CC4)nnc3c2Cl)CCN1c1ccccc1 [compound 105]
6.33 | FC(F)(F)Cc1nnc2c(Cl)c(N3CCC(Oc4ccccn4)CC3)ccn12 [compound 114]
7.3 | CC(C)OCc1nnc2c(C(F)(F)F)c(N3CCC(c4ccccc4)CC3)ccn12 [compound 122]
6.42 | CC(C)OCc1nnc2c(Cl)c(N3CCC(F)(c4ccccc4)CC3)ccn12 [compound 127]
7.05 | CC1(c2ccccc2)CCN(c2ccn3c(CC4CC4)nnc3c2Cl)CC1 [compound 133]
6.77 | CC(C)OCc1nnc2c(Cl)c(N3CCC(c4ccccc4)CC3)ccn12 [compound 135]
7.69‡ | CCOCc1nnc2c(C(F)(F)F)c(N3CCC(c4ccccc4)CC3)ccn12 [compound 136]
6.87 | FC(F)(F)c1c(N2CC(c3ccccc3)C2)ccn2c(CC3CC3)nnc12 [compound 137]
6.55 | FC1(c2ccccc2)CCN(c2ccn3c(CCC4CC4)nnc3c2Cl)CC1 [compound 140]

Same assay, conditions: in presence of glutamate at EC20; average pEC50 if more experiments; ‡ means tested once; read-out: GTPγS - hR2 PAM pEC50 (converted)

EC50 [µM] | Compound
1.74 | FC(F)(F)c1c(N2CCC3(CC2)COc2ncccc23)ccn2c(CC3CC3)nnc12 [compound 119, 1′-[3-cyclopropylmethyl-8-(trifluoromethyl)[1,2,4]triazolo[4,3-a]pyridin-7-yl]-spiro[furo[2,3-b]pyridine-3(2H),4′-piperidine]]
0.00437 | CC1(C)OC2(CCN(c3ccn4c(CC(F)(F)F)nnc4c3Cl)CC2)c2ccccc21 [compound 139]

From patent US10071095B2, “1,2,4-triazolo [4,3-A] pyridine derivatives and their use for the treatment of neurological and psychiatric disorders” (JANSSEN PHARMACEUTICALS, INC., priority 2009, dated 2018)
